Experimental data from ChEMBL document CHEMBL6096728, “Simultaneous Induction of Immunogenic Pyroptosis and PD-L1 Downregulation by One Single Photosensitizer for Synergistic Cancer Photoimmunotherapy” (J Med Chem, 2025).
Active and inactive are the calls of the source. The calls are words filed in the database; no cut-off is given here.

Tests used:
[1] = Induction of singlet oxygen production in acetonitrile solution assessed as decrease in ABDA absorption under LED light irradiation at 20 mW.cm/2 measured upto 30 mins by microplate reader analysis; assay type: functional
4T1 [2] = experiment: Induction of intracellular ROS generation in mouse 4T1 cells assessed as increase in fluorescence intensity at 0.1 uM preincubated for 2 hrs followed by compound washout further incubated with DCFH-DA probe for 30 mins under light irradiation of 20 mW.cm/2 at 400 to 700nm measured after 10 mins by flow cytometry analysis; assay type: functional, cell-based
4T1 [3] = experiment: Induction of intracellular ROS generation in mouse 4T1 cells assessed as increase in fluorescence intensity at 0.1 uM preincubated for 2 hrs followed by compound washout further incubated with DCFH-DA probe for 30 mins under light irradiation of 20 mW.cm/2 at 400 to 700nm measured after 10 mins in presence of tiron by flow cytometry analysis; assay type: functional, cell-based
MDA-MB-231 [4] = experiment: Induction of cell death in human MDA-MB-231 cells assessed as increase in red fluorescence at 0.5 uM incubated for 24 hrs followed by light irradiation of 20 mW.cm/2 at 400 to 700nm for 10 mins by Calcein-AM/PI staining based analysis; assay type: functional
MDA-MB-231 [5] = experiment: Induction of cell death in human MDA-MB-231 cells assessed as decrease in green fluorescence at 0.5 uM incubated for 24 hrs followed by light irradiation of 20 mW.cm/2 at 400 to 700nm for 10 mins by Calcein-AM/PI staining based analysis; assay type: functional
4T1 [6] = experiment: Induction of cell death in mouse 4T1 cells assessed as decrease in green fluorescence at 0.5 uM incubated for 24 hrs followed by light irradiation of 20 mW.cm/2 at 400 to 700nm for 10 mins by Calcein-AM/PI staining based analysis; assay type: functional
MDA-MB-231 [7] = experiment: Inhibition of human MDA-MB-231 cells at 0.1 uM under light irradiation of 20 mW.cm/2 at 400 to 700nm measured after 14 days by crystal violet staining based assay; assay type: functional, cell-based; conditions: time 14.0 day
4T1 [8] = experiment: Induction of pyroptosis in mouse 4T1 cells assessed as cell swelling at 0.5 uM preincubated with compound for 4 hrs followed by light irradiation of 20 mW.cm/2 at 400 to 700nm for 10 mins by confocal fluorescence microscopy analysis; assay type: functional, cell-based
MDA-MB-231 [9] = experiment: Induction of pyroptosis in human MDA-MB-231 cells assessed as appearance of large bubbles in cell at 0.5 uM preincubated with compound for 4 hrs followed by light irradiation of 20 mW.cm/2 at 400 to 700nm for 10 mins by confocal fluorescence microscopy analysis; assay type: functional, cell-based
4T1 [10] = experiment: Induction of pyroptosis in mouse 4T1 cells assessed as appearance of large bubbles in cell at 0.5 uM preincubated with compound for 4 hrs followed by light irradiation of 20 mW.cm/2 at 400 to 700nm for 10 mins by confocal fluorescence microscopy analysis; assay type: functional, cell-based
MDA-MB-231 [11] = experiment: Induction of pyroptosis in human MDA-MB-231 cells assessed as effect on GSDMD-N expression level at 0.1 to 0.5 uM preincubated with compound for 12 hrs followed by light irradiation of 20 mW.cm/2 at 400 to 700nm for 10 mins by Western blot analysis; assay type: functional, cell-based; conditions: dose 0.1-0.5 µM
MDA-MB-231 [12] = experiment: Induction of pyroptosis in human MDA-MB-231 cells assessed as effect on caspase-1 expression level at 0.1 to 0.5 uM preincubated with compound for 12 hrs followed by light irradiation of 20 mW.cm/2 at 400 to 700nm for 10 mins by Western blot analysis; assay type: functional, cell-based; conditions: dose 0.1-0.5 µM
MDA-MB-231 [13] = experiment: Induction of pyroptosis in human MDA-MB-231 cells assessed as upregulation of GSDME-N expression level at 0.1 to 0.5 uM incubated with compound for 12 hrs under dark condition by Western blot analysis; assay type: functional, cell-based; conditions: dose 0.1-0.5 µM
MDA-MB-231 [14] = experiment: Induction of pyroptosis in human MDA-MB-231 cells assessed as increase in LDH release at 0.1 to 0.5 uM incubated for 12 hrs under light irradiation of 20 mW.cm/2 at 400 to 700nm for 10 mins; assay type: functional, cell-based; conditions: dose 0.1-0.5 µM
MDA-MB-231 [15] = experiment: Induction of pyroptosis mediated immunogenic cell death in human MDA-MB-231 cells assessed as increase in CRT exposure on cell membrane at 0.5 uM incubated for 12 hrs under light irradiation of 20 mW.cm/2 at 400 to 700nm for 10 mins; assay type: functional, cell-based
MDA-MB-231 [16] = experiment: Induction of pyroptosis mediated immunogenic cell death in human MDA-MB-231 cells assessed as increase in HMGB1 release at 0.5 uM incubated for 12 hrs under light irradiation of 20 mW.cm/2 at 400 to 700nm for 10 mins; assay type: functional, cell-based
MDA-MB-231 [17] = experiment: Downregulation of PD-L1 expression level in human MDA-MB-231 cells at 0.5 uM preincubated with MG-132 followed by compound addition and measured after 24 hrs under light irradiation of 20 mW.cm/2 at 400 to 700nm for 10 mins by Western blot analysis; assay type: functional, cell-based
MDA-MB-231 [18] = experiment: Photocytotoxicity in human MDA-MB-231 cells assessed as reduction in 3D multicellular spheroids diameter at 0.5 to 1 uM incubated for 24 hrs under light irradiation of 50 mW.cm/2 at 400 to 700nm measured after 10 mins in normoxia condition; assay type: functional, cell-based; conditions: dose 0.5-1 µM
[19] = Drug accumulation in BALB/c mouse tumor implanted with mouse 4T1 cells assessed as increase in fluorescence intensity at 25 mg/kg, iv measured after 0 to 3 hrs by imaging based analysis; assay type: ADME, organism-based, Neoplasm; conditions: in vivo, time 0-3 hrs
[20] = Toxicity in BALB/c mouse assessed as effect on liver at 25 mg/kg, iv measured after 14 days by H and E staining based analysis; assay type: organism-based; conditions: in vivo, 336 h, time 14 day
[21] = Toxicity in BALB/c mouse assessed as effect on spleen at 25 mg/kg, iv measured after 14 days by H and E staining based analysis; assay type: organism-based; conditions: in vivo, 336 h, time 14 day
[22] = Toxicity in BALB/c mouse assessed as effect on WBC at 25 mg/kg, iv measured after 14 days; assay type: organism-based; conditions: in vivo, 336 h, time 14 day
[23] = Toxicity in BALB/c mouse assessed as effect on hemoglobin at 25 mg/kg, iv measured after 14 days under light irradiation of 300 mW.cm/2 at 400 to 700nm measured after 5 mins; assay type: organism-based; conditions: in vivo, 336 h, 0.7 µM, time 14 day
4T1 [24] = experiment: Antitumor immunity against mouse 4T1 cells implanted in BALB/c mouse model assessed as increase in IL-6 secretion in tumors at 25 mg/kg, iv measured after 14 days under light irradiation of 300 mW.cm/2 at 400 to 700nm measured after 5 mins by ELISA method; assay type: functional, organism-based; conditions: time 14.0 day
4T1 [25] = experiment: Antitumor immunity against mouse 4T1 cells implanted in BALB/c mouse model assessed as increase of CD4+ T cells in lymph node at 25 mg/kg, iv measured after 14 days under light irradiation of 300 mW.cm/2 at 400 to 700nm measured after 5 mins […]; assay type: functional, organism-based; conditions: time 14.0 day
4T1 [26] = experiment: Antitumor immunity against mouse 4T1 cells implanted in BALB/c mouse model assessed as increase in proportion of tumor infiltrating CD4+ T cells at 25 mg/kg, iv measured after 14 days under light irradiation of 300 mW.cm/2 at 400 to 700nm measured after 5 mins by immunofluorescence analysis; assay type: functional, organism-based; conditions: time 14.0 day

SMILES: O=c1cc2sc3cc(N4CCNCC4)ccc3nc-2c2ccccc12
- Activity [1]: Active
- Activity (4T1 [2]): Active
- Activity (4T1 [3]): inactive
- Activity (MDA-MB-231 [4]): Active
- Activity (MDA-MB-231 [5]): Active
- Activity (4T1 [6]): Active
- inhibition (MDA-MB-231 [7]): Active
- Activity (4T1 [8]): Active
- Activity (MDA-MB-231 [9]): Active
- Activity (4T1 [10]): Active
- Activity (MDA-MB-231 [11]): inactive
- Activity (MDA-MB-231 [12]): inactive
- Activity (MDA-MB-231 [13]): Active; Compound Showed Negligible Changes
- Activity (MDA-MB-231 [14]): Active
- Activity (MDA-MB-231 [15]): Active
- Activity (MDA-MB-231 [16]): Active
- Activity (MDA-MB-231 [17]): inactive
- Activity (MDA-MB-231 [18]): Active
- Drug uptake [19]: Active
- Activity [20]: Non-toxic
- Activity [21]: Non-toxic
- Activity [22]: Non-toxic
- Activity [23]: Non-toxic
- Activity (4T1 [24]): Active
- Activity (4T1 [25]): Active
- Activity (4T1 [26]): Active
